Test results taken from US7611721B1, “Adjuvant combination formulations” (priority 2000, dated 2009).
Read-outs that look alike come from different tables or passages of the source.

Tests used:
spleen cells = assay: Secretion of IL-4 by spleen cells (ELISA); type: cell-based, Balb/c mice; conditions: Experiment 2, 96 hours culture, after subtraction of lysozyme value
Method: For proliferation assays and in vitro cytokine analysis, spleen cells were obtained from mice at the indicated time points. Single cell suspensions were prepared from pools of 3-5 mice as indicated in Results. For proliferation and cytokine analysis, cells were suspended in round bottom 96 well culture plates precoated overnight with HIV peptide antigens, control proteins, or RPMI-10 only. Spleen cells were added at 5×10^5 cells/well using culture medium having 2× supplements. Cell culture supernatants were harvested from triplicate wells for cytokine analysis three or six days after culture initiation. Immediately after supernatant harvest, cultures were pulsed with ^3H-thymidine for 18-24 hours, and harvested to quantify cell proliferation.
For cytokine analysis, cell culture supernatants were added to wells coated with BVD6-11B11 (for anti-IL4), or R4-6A2 (for interferon-gamma). After incubation and washing, wells were developed using biotin-labeled BVD6-24G2 (for IL4) or XMG 1.2 (for interferon-gamma). The concentration of cytokines was determined using a standard curve prepared from recombinant murine interferon-gamma or interleukin-4. All cytokine reagents were purchased from Pharmingen (San Diego, Calif.).
Interleukin-4 secreted into culture by spleen cells stimulated with 25 μg T1SP10MN(A) (−Cys) was measured. Spleen cells were harvested from pools of five Balb/c female mice and cultured with the indicated antigenic stimuli (50 ng IL-12, 10 μg GM-CSF, 50 μg MPL™ as indicated) for either three or six days. Interleukin-4 levels were determined by ELISA, and compared to a standard having a known concentration. Blank wells indicate that the assay could not detect Interleukin-4 from those culture conditions. The lower limit of detection sensitivity was 22 Units/ml.
Cells were cultured for a total of 96 hours. Cell culture supernatants were analyzed for IL-4 by ELISA. All values were after subtraction from those determined from supernatants of cells stimulated with 10 μg of an irrelevant protein (lysozyme). Results which were below the limit of detection, after subtraction from stimulation induced with lysozyme are indicated as “bd”. The adjuvants were 40 ng IL-12, 10 μg GM-CSF and 50 μg MPL™.

[1] = test system: Neisseria gonorrhoeae Porin B protein; assay: Reciprocal anti-Porin B protein serum IgG endpoint subclass titers; type: in vivo, Swiss-Webster mice; conditions: for Reciprocal anti-Porin B Protein IgG1 endpoint titer, Week 3 / Reciprocal anti-Porin B Protein IgG1 endpoint titer, Week 6 / Reciprocal anti-Porin B Protein IgG2a endpoint titer, Week 3 / Reciprocal anti-Porin B Protein IgG2a endpoint titer, Week 6 / Reciprocal anti-Porin B Protein IgG endpoint titer, Week 3 / Reciprocal anti-Porin B Protein IgG endpoint titer, Week 6: 1 μg Porin B s.c. week 0 and 4
Method: (§1) Outbred Swiss-Webster mice were divided into five groups of ten mice each. Each group received 1 μg of recombinant Porin B protein (from strain FA1090 with 16 amino acids at the amino-terminus from a phage, followed by the mature form of the Porin B protein). […] Mice were immunized subcutaneously in the rump with a total volume of 0.2 ml, divided equally into each of two sites at the base of the tail/rump. Immunizations were administered at week 0 and week 4.
Mice were bled the day prior to each immunization, and at 13 days after the final immunization. Serum was analyzed from pools from mice within groups. […] All day 0 pre-immunization titers were less than 50.
Individual week 6 IgG titer geometric means against the recombinant Porin B protein were also determined.
as §1, with “six” for “five”, “five” for “ten”, “ml.” for “ml, divided equally into each of two sites at the base of the tail/rump.”
(§2) Mice were bled the day prior to each immunization, and at 13 days after the final immunization. Serum was analyzed from pools from mice within groups. […] All day 0 pre-immunization titers were less than 50. The starting dilution for vaginal lavage analysis was 1/5.

RSV F protein = conditions: pooled serum n=5 Balb/c
[2] = test system: Neisseria gonorrhoeae Porin B protein; assay: Vaginal wash anti-Porin B protein IgG and IgA titers; type: in vivo, Swiss-Webster mice; conditions: Experiment 11; Swiss-Webster; starting dilution 1/5
Method: as §1, with “six” for “five”, “five” for “ten”, “ml.” for “ml, divided equally into each of two sites at the base of the tail/rump.”
as §2

[3] = Experiment 10, pooled serum n=10 Swiss-Webster
[4] = Experiment 11, pooled serum n=5 Swiss-Webster
[5] = Experiment 12, 3 μg F protein i.m. week 0 and 4
[6] = Experiment 13, F protein week 0 and 4
[7] = Experiment 14, 3 μg F protein s.c. week 0 and 4
[8] = Experiment 2, pooled serum n=5 Balb/c, 14 days after second immunization
[9] = Experiment 4, individual Balb/c mouse, day 41, 13 days after secondary immunization (days 0 and 28)
[10] = Experiment 4, pooled serum n=5 Balb/c, day 41, 13 days after secondary immunization
[11] = Experiment 5, pooled serum n=5 Balb/c, immunized days 0 and 22, bled day 42

Chain of RSV F protein (P03420 137-574): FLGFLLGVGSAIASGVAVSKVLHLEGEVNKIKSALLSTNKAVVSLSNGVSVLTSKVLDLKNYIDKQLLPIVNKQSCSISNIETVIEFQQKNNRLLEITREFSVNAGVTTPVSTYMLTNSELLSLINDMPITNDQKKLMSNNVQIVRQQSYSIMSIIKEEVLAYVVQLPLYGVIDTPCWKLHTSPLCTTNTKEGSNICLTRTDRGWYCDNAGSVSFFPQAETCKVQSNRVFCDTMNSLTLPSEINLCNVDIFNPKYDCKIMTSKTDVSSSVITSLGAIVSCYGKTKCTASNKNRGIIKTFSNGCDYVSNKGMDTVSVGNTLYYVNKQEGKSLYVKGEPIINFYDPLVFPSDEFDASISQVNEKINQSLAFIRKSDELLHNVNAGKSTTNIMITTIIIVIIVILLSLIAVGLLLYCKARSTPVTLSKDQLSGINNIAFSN
Method for T1SP10MN(A) (−Cys): Mice were immunized subcutaneously in the rump, in a total volume of 0.2 ml equally divided on each side of the tail. Immunizations were administered at varying time intervals, as indicated below. Antigen and cytokines were diluted in phosphate buffered saline to the appropriate concentrations and formulated with adjuvants less than 16 hours prior to immunization, under sterile conditions. Vaccines were mixed by gentle agitation, and stored at 4° C. Formulations were mixed by vortex immediately prior to immunization.
Animals were bled prior to initial immunization, and at indicated time points. Serum was analyzed from individual mice, or as pools from mice within groups.
For analysis of HIV peptide-specific antibody and subclass distribution, peptide was suspended in either carbonate buffer (15 mM Na2CO3, 35 mM NaHCO3, pH 9.6), or PBS, at a concentration of 1 μg/ml and plated to 96 well microtiter plates (Nunc) in a volume of 100:1. After overnight incubation at 37° C., plates were washed, and blocked (0.1% gelatin/PBS) at room temperature for 2-4 hours. ELISA plates were washed with wash buffer (PBS, 0.1% Tween™20) before addition of serially diluted serum (PBS, 0.1% gelatin, 0.05% Tween™20, 0.02% sodium azide). After a four hour incubation, wells were washed and appropriate dilutions of biotinylated anti-isotype/subclass antibodies were added for incubation at 4° C. overnight. Wells were washed and incubated with strepavidin-conjugated horseradish peroxidase. After incubation, wells were washed, and developed with ABTS. Wells were read at 405 nm. Titers were standardized using control sera.
Reciprocal anti-HIV peptide-specific IgG endpoint titers were measured from pooled serum (n=5 Balb/c) at the indicated time points after initial immunization. Mice were immunized subcutaneously in the rump with 25 μg of T1SP10MN(A) (−Cys), unless otherwise indicated, on day 0, and on day 27. For recipients of Freund's adjuvants, mice were primed with peptide emulsified in CFA, and boosted with IFA. MPL™ SE was provided as an emulsion containing 2% squalene oil and 50 μg MPL™ per dose. SE is an oil-in-water emulsion vehicle consisting of squalene, glycerol, and an emulsifying agent. Recombinant murine IL-12 was delivered at 50 ng/mouse. Recombinant murine GM-CSF was delivered at 10 μg/mouse.
Reciprocal endpoint IgG subclass titers were measured from pooled serum (n=5 Balb/c) six weeks after initial immunization, two weeks after secondary immunization. Mice were immunized subcutaneously in the rump with 25 μg of peptide, unless otherwise indicated. For recipients of Freund's adjuvants, mice were primed with peptide emulsified in complete Freund's adjuvant, and boosted with incomplete Freund's adjuvant on weeks four and six. MPL™ SE was provided as an emulsion containing 2% squalene oil and 50 μg MPL™ per dose. SE is an oil-in-water emulsion vehicle consisting of squalene, glycerol, and an emulsifying agent. Recombinant murine IL-12 was delivered at 50 ng/mouse. Recombinant murine GM-CSF was delivered at 10 μg/mouse.
Mice were immunized subcutaneously in the rump, in a total volume of 0.2 ml equally divided on each side of the tail. Immunizations were administered on days 0 and 21 with 25 μg of the HIV peptide, together with the indicated amount of adjuvant(s).
Reciprocal anti-peptide IgG endpoint titers were measured from either geometric means from individual mice (GMT) or from pooled serum (n=5 Balb/c), obtained 14 days after the second immunization. IgG1 and IgG2a subclass endpoint titers were also measured from pooled serum.

3-O-deacylated monophosphoryl lipid A [MPL ™]
Secretion of IL-4, Con A 5 μg/ml (spleen cells): 286 pg/mL
Secretion of IL-4, HIV Peptide 1.1 μg/ml (spleen cells; bd = below limit of detection): 17 pg/mL
Secretion of IL-4, HIV Peptide 3.3 μg/ml (spleen cells; bd = below limit of detection): bd
Secretion of IL-4, HIV Peptide 10 μg/ml (spleen cells; bd = below limit of detection): 5 pg/mL
Reciprocal anti-Porin B Protein IgG1 endpoint titer, Week 3 [1, 3]: 171
Reciprocal anti-Porin B Protein IgG1 endpoint titer, Week 6 [1, 3]: 23,465
Reciprocal anti-Porin B Protein IgG2a endpoint titer, Week 3 [1, 3]: 318
Reciprocal anti-Porin B Protein IgG2a endpoint titer, Week 6 [1, 3]: 20,422
Reciprocal anti-Porin B Protein IgG endpoint titer, Week 3 [1, 3]: 3,381
Reciprocal anti-Porin B Protein IgG endpoint titer, Week 6 [1, 3]: 431,529
Individual IgG titers against recombinant Porin B protein, Geometric Mean ([1]; Experiment 10, week 6, Swiss-Webster): 217,114
Reciprocal anti-Porin B Protein IgG1 endpoint titer, Week 3 [1, 4]: 500
Reciprocal anti-Porin B Protein IgG1 endpoint titer, Week 6 [1, 4]: 76,640
Reciprocal anti-Porin B Protein IgG2a endpoint titer, Week 3 [1, 4]: 1,925
Reciprocal anti-Porin B Protein IgG2a endpoint titer, Week 6 [1, 4]: 60,910
Reciprocal anti-Porin B Protein IgG endpoint titer, Week 3 [1, 4]: 5,656
Reciprocal anti-Porin B Protein IgG endpoint titer, Week 6 [1, 4]: 265,127
Reciprocal anti-RSV F Protein IgG1 endpoint titer, Week 3 (RSV F protein; [5]): 28,134
Reciprocal anti-RSV F Protein IgG1 endpoint titer, Week 6 (RSV F protein; [5]): 900,863
Reciprocal anti-RSV F Protein IgG2a endpoint titer, Week 3 (RSV F protein; [5]): 11,882
Reciprocal anti-RSV F Protein IgG2a endpoint titer, Week 6 (RSV F protein; [5]): 1,057,108
Reciprocal anti-RSV F Protein IgG endpoint titer, Week 3 (RSV F protein; [5]): 124,197
Reciprocal anti-RSV F Protein IgG endpoint titer, Week 6 (RSV F protein; [5]): 3,310,838
Reciprocal anti-RSV F Protein IgG1 endpoint titer, Week 3 (RSV F protein; [6]): 21,930
Reciprocal anti-RSV F Protein IgG1 endpoint titer, Week 6 (RSV F protein; [6]): 1,384,927
Reciprocal anti-RSV F Protein IgG2a endpoint titer, Week 3 (RSV F protein; [6]): 61,253
Reciprocal anti-RSV F Protein IgG2a endpoint titer, Week 6 (RSV F protein; [6]): 955,685
Reciprocal anti-RSV F Protein IgG endpoint titer, Week 3 (RSV F protein; [6]): 104,702
Reciprocal anti-RSV F Protein IgG endpoint titer, Week 6 (RSV F protein; [6]): 6,153,833
Reciprocal anti-RSV F Protein IgG1 endpoint titer, Week 3 (RSV F protein; [7]): 55,767
Reciprocal anti-RSV F Protein IgG1 endpoint titer, Week 6 (RSV F protein; [7]): 402,128
Reciprocal anti-RSV F Protein IgG2a endpoint titer, Week 3 (RSV F protein; [7]): 8,397
Reciprocal anti-RSV F Protein IgG2a endpoint titer, Week 6 (RSV F protein; [7]): 170,252
Reciprocal anti-RSV F Protein IgG endpoint titer, Week 3 (RSV F protein; [7]): 26,179
Reciprocal anti-RSV F Protein IgG endpoint titer, Week 6 (RSV F protein; [7]): 3,467,097
Vaginal Wash IgA titer, anti-Porin B Protein [2]: 5
Vaginal Wash IgG titer, anti-Porin B Protein [2]: 54
Reciprocal anti-T1SP10MN(A) (−Cys) IgG (GMT) endpoint titer (T1SP10MN(A) (−Cys); Experiment 2, geometric mean of individual Balb/c mice, 14 days after second immunization): 241,918
Reciprocal anti-T1SP10MN(A) (−Cys) IgG1 (pool) endpoint titer (T1SP10MN(A) (−Cys); [8]): 134,428
Reciprocal anti-T1SP10MN(A) (−Cys) IgG2a (pool) endpoint titer (T1SP10MN(A) (−Cys); [8]): 7,127
Reciprocal anti-T1SP10MN(A) (−Cys) IgG (pool) endpoint titer (T1SP10MN(A) (−Cys); Experiment 2, pooled serum n=5 Balb/c, immunized days 0 and 21, 14 days after second immunization): 219,705
IgG serum titer specific for T1SP10MN(A) (−Cys), Mouse #1 (T1SP10MN(A) (−Cys); [9]): 50
IgG serum titer specific for T1SP10MN(A) (−Cys), Mouse #2 (T1SP10MN(A) (−Cys); [9]): 151,846
IgG serum titer specific for T1SP10MN(A) (−Cys), Mouse #3 (T1SP10MN(A) (−Cys); [9]): 249,054
IgG serum titer specific for T1SP10MN(A) (−Cys), Mouse #4 (T1SP10MN(A) (−Cys); [9]): 436,378
IgG serum titer specific for T1SP10MN(A) (−Cys), Mouse #5 (T1SP10MN(A) (−Cys); [9]): 1,245,470
Geometric Mean IgG serum titer specific for T1SP10MN(A) (−Cys), GMT (T1SP10MN(A) (−Cys); Experiment 4, n=5 Balb/c, day 41, 13 days after secondary immunization): 63,452
Reciprocal anti-T1SP10MN(A) (−Cys) IgG1 endpoint titer (T1SP10MN(A) (−Cys); [10]): 33,544
Reciprocal anti-T1SP10MN(A) (−Cys) IgG2a endpoint titer (T1SP10MN(A) (−Cys); [10]): 212
Reciprocal anti-T1SP10MN(A) (−Cys) IgG2b endpoint titer (T1SP10MN(A) (−Cys); [10]): <100
Reciprocal anti-T1SP10MN(A) (−Cys) IgG GMT (T1SP10MN(A) (−Cys); Experiment 5, geometric mean n=5 Balb/c, immunized days 0 and 22, bled day 42): 2,032,441
Reciprocal anti-T1SP10MN(A) (−Cys) IgG1 endpoint titer (T1SP10MN(A) (−Cys); [11]): 1,314,771
Reciprocal anti-T1SP10MN(A) (−Cys) IgG2a endpoint titer (T1SP10MN(A) (−Cys); [11]): 9,688
Reciprocal anti-T1SP10MN(A) (−Cys) IgG2b endpoint titer (T1SP10MN(A) (−Cys); [11]): 13,716
Reciprocal anti-T1SP10MN(A) (−Cys) IgG endpoint titer (T1SP10MN(A) (−Cys); [11]): 2,635,118
